Measurements as given in patent US8796327B2, “Method for inhibiting production of cytokines of T helper cell type II and/or inhibiting production of chemokines using brazilin” (China Medical University, priority 2010, dated 2014).

How the values were obtained:
IL-4 [1] = experiment: ELISA of IL-4 in bronochial alveolar lavage fluid, mice with asthma (OVA); type: in vivo, BALB/c mice; conditions: for IL-4 concentration (pico-gram/ml): i.p. or i.t., OVA-sensitized BALB/c mice
Method: (§1) In Example 2, mice with asthma were used to conduct in vivo experiments, and ovalbumin (OVA) was used as an allergen.
(§2) The mice were sensitized (or challenged) according to the steps shown in FIG. 9 (see Lee et al., Lentiviral-mediated GATA-3 RNAi decreases allergic airway inflammation and hyperresponsiveness. Molecular Therapy, 2008; 16:60-65, which is incorporated herein in its entirety by reference). First, 50 μg OVA (using 2 mg alumina (Alum, Alumlmuject, Pierce Chemical, Rockford, Ill., USA) as an adjuvant) was injected into six to eight-week-old BALB/c female mice (from National Laboratory Animal Center, Taiwan) by intraperitoneal injection (i.p.). At 0th, 14th, and 28th day, the mice were injected with OVA at the same dosage. Before the administration of OVA at the forty-first and the forty-second days, different dosages of brazilin (high dose: 430 μg/mice; low dose: 43 μg/mice) were administrated to the mice by intraperitoneal injection (i.p.) or intratracheal instillation (i.t.). During the fortieth to the forty-second days, 100 μg OVA was dissolved in 40 μl PBS, and was administrated to the mice by intranasal instillation (i.n.) (once everyday, for three days). At the forty-third day, airway hyperresponsiveness of the mice was observed. […]
(§3) In Experiment D, after 24 hours from the last administration of OVA into the noses of the mice, the mice were sacrificed, and the blood was collected from the orbital cavities of the mice. […] Cells obtained after the centrifugation were re-suspended in a 1 ml HBSS buffer solution, and the total cell number was counted with a hemocytometer.
(§4) The bronochial alveolar lavage fluid collected in Experiment E was centrifuged at 4° C. and with a revolution speed of 400 g for 10 minutes. After the supernatant was collected, the expression of eotaxin, IL-4, IL-5, and IFN-γ was analyzed with an ELISA kit (R&D Systems, Inc., USA). […]

IL-4 [2] = experiment: ELISA of IL-4 in supernatant of EL-4 T lymphoma cells; type: cell-based, mouse; conditions: EL-4 cells
Method: First, in an incubator containing 5 vol % of CO2 at 37° C., EL-4 mouse T lymphoma cells (commercially available from ATCC, Manassas, Va., America) were cultured in the DMEM culture medium (containing 10 wt % of thermally deactivated FBS), and were sub-cultured at a ratio of 1:3.
(§5) Then, at a density of 5×10^5 counts/ml, the T lymphoma cells were bred in a six-well culture dish, and at the 0th minute, brazilin of different concentrations (0.3, 1, 3, 10, or 30 micromole (μM)) was added into the cell culture solution at an amount of 1 μl/ml-cell culture solution. Then, the cells were put into the incubator to be cultured therein. 30 minutes later, at an amount of 1 μl/ml-cell culture solution, 5 μg/ml PMA and cAMP at a 250 mmol concentration were added to the cell culture solution to stimulate the expression of IL-4 and IL-5 of the T lymphoma cells. During the process of cell culture, the trypan blue exclusion assay was employed to observe effect of the brazilin on the cell viability, results of which are shown in Table 1 and FIG. 1.
At 4° C., the T lymphoma cells obtained from Experiment A were centrifugally rotated at a rotational speed of 1000 rpm and at 4° C. for 5 minutes, and the supernatant was collected and analyzed for cytokines.
An enzyme-linked immunosorbent assay (ELISA) kit (commercially available from R&D Systems, Inc., America) was used to analyze the expression of IFN-γ, IL-4, IL-5, and eotaxin cytokines in the aforesaid supernatant, results of which are shown in Table 2, Table 3, FIG. 2, and FIG. 3.
In Experiment B and the following Experiment C, all experimental data are presented in form of “mean±standard deviation”, and statistical discrepancy was analyzed by means of the One-way ANOVA and Newman-keuls post-hoc tests, in which it is considered that there is statistical discrepancy if p<0.05.

eotaxin = experiment: ELISA of eotaxin in bronochial alveolar lavage fluid, mice with asthma (OVA); type: in vivo, BALB/c mice; conditions: for Eotaxin concentration (pico-gram/ml): i.p. or i.t., OVA-sensitized BALB/c mice
Method: as §1, §2, §3, §4

T-bet mRNA = experiment: Real-time PCR of T-bet mRNA in EL-4 T lymphoma cells; type: cell-based, mouse; conditions: for Expression level of T-bet mRNA: PMA + cAMP stimulated EL-4 cells, corrected to HPRT
Method: as §5
(§6) Expression of mRNA of IL-4, IL-5, GATA-3, c-maf, and T-bet were analyzed in a quantitative way through real-time polymerase chain reaction (PCR) by extracting RNA in the cells obtained in Experiment A (using an RNA purifying kit), converting the RNA into cDNA through reverse transcription, and using an ABI PRISM 7700 sequence detector (Applied Biosystems, Foster City, Calif., America) to analyze the gene expression of mRNA. The PCR was carried out under the following conditions: 50° C., 2 minutes; 95° C., 10 minutes; 60° C., 1 minute; then repeating this cycle forty times. A threshold cycle (or referred to as Ct) was used to represent the expression level of each gene, and an expression level of hypoxanthine-guanine phosphoribosy transferase (HPRT) genes of the endogenous control group was used for correction of the expression level of mRNA.

IL-4 mRNA = experiment: Real-time PCR of IL-4 mRNA in EL-4 T lymphoma cells; type: cell-based, mouse; conditions: for Expression level of IL-4 mRNA: PMA + cAMP stimulated EL-4 cells, corrected to HPRT
Method: as §5, §6

## Oc1ccc2c(c1)OC[C@]1(O)Cc3cc(O)c(O)cc3[C@H]21 [brazilin]
IL-4 [1]; BALB/c mice, result in words
  production of IL-4 cytokine: inhibited
IL-4 [1]; High dose (430 μg/mice)
  IL-4 concentration (pico-gram/ml): 23.01 ± 2.327 pico-gram/ml
IL-4 [1]; Low dose (43 μg/mice)
  IL-4 concentration (pico-gram/ml): 36.76 ± 5.490 pico-gram/ml
IL-4 [2]; result in words
  expression of protein of IL-4 cytokine: inhibited
IL-4 [2]; brazilin 0.3 μM + PMA + cAMP
  Concentration of IL-4 (pico-gram/ml): 23.93 ± 2.214 pico-gram/ml
IL-4 [2]; brazilin 1 μM + PMA + cAMP
  Concentration of IL-4 (pico-gram/ml): 22.49 ± 1.969 pico-gram/ml
IL-4 [2]; brazilin 3 μM + PMA + cAMP
  Concentration of IL-4 (pico-gram/ml): 23.45 ± 2.693 pico-gram/ml
IL-4 [2]; brazilin 10 μM + PMA + cAMP
  Concentration of IL-4 (pico-gram/ml): 23.13 ± 2.297 pico-gram/ml
IL-4 [2]; brazilin 30 μM + PMA + cAMP
  Concentration of IL-4 (pico-gram/ml): 18.71 ± 1.206 pico-gram/ml
eotaxin; BALB/c mice, result in words
  production of β-chemokine, eotaxin: inhibited
eotaxin; High dose (430 μg/mice)
  Eotaxin concentration (pico-gram/ml): 12.61 ± 1.334 pico-gram/ml
eotaxin; Low dose (43 μg/mice)
  Eotaxin concentration (pico-gram/ml): 18.64 ± 3.784 pico-gram/ml
T-bet mRNA; EL-4 cells, result in words
  expression of mRNA of transcription factor T-bet: did not inhibit
T-bet mRNA; brazilin 0.3 μM
  Expression level of T-bet mRNA: 1.073 ± 0.1762
T-bet mRNA; brazilin 1 μM
  Expression level of T-bet mRNA: 1.036 ± 0.1666
T-bet mRNA; brazilin 3 μM
  Expression level of T-bet mRNA: 1.052 ± 0.09226
T-bet mRNA; brazilin 10 μM
  Expression level of T-bet mRNA: 1.068 ± 0.1171
T-bet mRNA; brazilin 30 μM
  Expression level of T-bet mRNA: 1.054 ± 0.05147
IL-4 mRNA; EL-4 cells, result in words
  expression of mRNA of IL-4: inhibited
IL-4 mRNA; brazilin 0.3 μM
  Expression level of IL-4 mRNA: 2.228 ± 0.4786
IL-4 mRNA; brazilin 1 μM
  Expression level of IL-4 mRNA: 2.028 ± 0.1794
IL-4 mRNA; brazilin 3 μM
  Expression level of IL-4 mRNA: 2.136 ± 0.2671
IL-4 mRNA; brazilin 10 μM
  Expression level of IL-4 mRNA: 1.835 ± 0.2712
IL-4 mRNA; brazilin 30 μM
  Expression level of IL-4 mRNA: 1.478 ± 0.1441
